Laboratory results as given in patent EP1147080B1 (Wyeth Holdings Corporation, priority 1999, dated 2000).
Read-outs that look alike come from different tables or passages of the source.

Key:
THP-1 cells = experiment: Human monocytic THP-1 cell differentiation assay for soluble proteins (THP soluble protein assay), LPS-stimulated, TNF-α ELISA; format: cell-based; details: for THP (% inhibition): Table 1, concentration not given; for inhibition at 3 µM: Homo sapiens, THP-1; at 3 uM; percent change from vehicle positive control; read-out: TNFalpha at 3 uM) THP (percent change)
Excerpt: Mitogenic stimulation of THP-1 cells cause differentiation into macrophage like cells with concomitant secretion of tumor necrosis factor (TNF-a) and TNF receptor (TNF-R p75/80 and TNF-R p55/60) and Interleukin-8 (IL-8), among other proteins. In addition, non-stimulated THP-1 cells shed both the p75/80 and the p55/60 receptors over time. The release of membrane bound TNF-a and possibly TNF-R p75/80 and TNF-R p55/60, but not IL-8, is mediated by an enzyme called TNF-α converting enzyme or TACE.
THP-1 cells (from ATCC) are a human monocytic cell line which were obtained from the peripheral blood of a person with acute monocytic leukemia. They can be grown in culture and differentiated into macrophage like cells by stimulation with mitogens.
Each vial of cells are cultured for about two weeks prior to being used for an assay and then are used for only 4 to 6 weeks to screen compounds.
Cell exposure to DMSO was limited to 0.1 % final concentration. […] Compounds can be evaluated for their effect on basal (non-stimulated) shedding of the receptors by replacing the LPS with […] of THP-1 media. Plates are placed into an incubator set at 5% CO2 and at 37°C. After 4 hours of incubation, […] of tissue culture supernatant (TCS) is removed for use in an TNF-α ELISA. Following 24 hours of incubation, […] of TCS is removed and used for analysis in TNF-R p75/80, TNF-R p55/60 and IL-8 ELISAs.
In addition, at the 24 hours timepoint, and the cells for each treatment group are collected by resuspension in 500 µl/well of THP-1 media and transferred into a FACS tube. […] The samples are run on a Becton Dickinson FaxCaliber FLOW cytometry machine and the amount of dye taken up by each cell is measured in the high red wavelength (FL3). Only cells with compromised membranes (dead or dying) can take up PI. The percent of live cells is calculated by the number of cells not stained with PI, divided by the total number of cells in the sample. The viability values calculated for the drug treated groups were compared to the viability value calculated for the vehicle treated mitogen stimulated group ("vehicle positive control") to determine the "percent change from control". This "percent change from control" value is an indicator of drug toxicity.
The quantity of soluble TNF-α, TNF-R p75/80 and TNF-R p55/60 and IL-8 in the TCS of the THP-1 cell cultures are obtained with commercially available ELISAs from R&D Systems, by extrapolation from a standard curve generated with kit standards. The number of cells that either take up or exclude PI are measured by the FLOW cytometry machine and visualized by histograms using commercially available Cytologic software for each treatment group including all controls.
Biological variability in the magnitude of the response of THP-1 cell cultures requires that experiments be compared on the basis of percent change from "vehicle positive control" for each drug concentration. Percent change in each soluble protein evaluated from the "vehicle positive control" was calculated for each compound concentration with the following formula: % Change =(pg/ml (compound) - pg/ml (veh pos control))/(pg/ml (veh pos control) - pg/ml (veh neg control))x 100 [formula]
For the soluble protein (TNF-a, p75/80, p55/60, IL-8) studies under stimulated conditions, the mean pg/ml of duplicate wells were determined and the results expressed as percent change from "vehicle positive control". For the soluble protein (p75/80 and p55/60 receptors) studies under non-stimulated conditions, the mean pg/ml of duplicate wells were determined and the results expressed as percent change from […] utilizing the following formula: % Change =(pg/ml (compound neg control) - pg/ml (veh neg control))/(pg/ml (veh neg control))X 100 [formula]
IC50 values for each compound are calculated by non-linear regression analysis using customized software utilizing the JUMP statistical package.

MMP-13 = MMP-13 (Homo sapiens, UniProt P45452); experiment: MMP-13 inhibition (thiopeptide or fluorescent peptide substrate); format: biochemical; details: for inhibition at 10 µM: % @ 10µM per footnote a
Excerpt: Alternatively, a fluorescent peptide substrate is used.

MMP-9 = MMP-9 (Homo sapiens, UniProt P14780); experiment: MMP-9 inhibition (thiopeptide or fluorescent peptide substrate); details: for inhibition at 10 µM: read-out: MMP9
Experimental: (§1) The enzyme activity is measured by the rate of the color increase. The thiopeptide substrate is made up fresh as a 20 mM stock in 100% DMSO and the DTNB is dissolved in 100% DMSO as a 100 mM stock and stored in the dark at room temperature. Both the substrate and DTNB are diluted together to 1 mM with substrate buffer (50 mM HEPES pH 7.5, 5 mM CaCl2) before use. The stock of enzyme is diluted with buffer (50 mM HEPES, pH 7.5, 5 mM CaCl2, 0.02% Brij) to the desired final concentration.
(§2) Alternatively, a fluorescent peptide substrate is used. In this test procedure, the peptide substrate contains a fluorescent group and a quenching group. Upon cleavage of the substrate by an MMP, the fluorescence that is generated is quantitated on the fluorescence plate reader. The assay is run in HCBC assay buffer (50mM HEPES, pH 7.0, 5 mM Ca^+2, 0.02% Brij, 0.5% Cysteine), with human recombinant MMP-1, MMP-9, or MMP-13. The substrate is dissolved in methanol and stored frozen in 1 mM aliquots. For the assay, substrate and enzymes are diluted in HCBC buffer to the desired concentrations. Compounds are added to the 96 well plate containing enzyme and the reaction is started by the addition of substrate.
(§3) For either the thiopeptide or fluorescent peptide test procedures, the slope of the line is calculated and represents the reaction rate. […] The mean (x±sem) of the control rate is calculated and compared for statistical significance (p<0.05) with drug-treated rates using Dunnett's multiple comparison test.

MMP-1 = target: T1, MMP-1 (Homo sapiens, UniProt P03956); experiment: MMP-1 inhibition (thiopeptide or fluorescent peptide substrate); details: for inhibition at 10 µM: read-out: MMP1
T1 sequence (P03956 100-469): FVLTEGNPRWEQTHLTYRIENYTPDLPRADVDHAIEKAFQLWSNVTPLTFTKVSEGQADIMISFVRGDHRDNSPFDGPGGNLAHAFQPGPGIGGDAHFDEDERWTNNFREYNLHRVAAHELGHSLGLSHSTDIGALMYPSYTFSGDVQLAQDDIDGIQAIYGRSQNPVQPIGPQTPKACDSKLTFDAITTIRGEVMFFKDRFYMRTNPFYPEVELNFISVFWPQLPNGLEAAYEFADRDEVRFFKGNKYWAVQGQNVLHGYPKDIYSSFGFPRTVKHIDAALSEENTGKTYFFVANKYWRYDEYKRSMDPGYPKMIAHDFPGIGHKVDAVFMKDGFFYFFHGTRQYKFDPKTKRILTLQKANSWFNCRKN
Experimental: as §1, §2, §3

[1] = target: TNF-α converting enzyme (TACE) (Homo sapiens, UniProt P78536); experiment: Test procedure for measuring TACE inhibition (fluorescent peptidyl substrate); format: biochemical
[2] = second table, IC50 (nM) per footnote a

Sequence of TNF-α converting enzyme (TACE) (P78536 215-824): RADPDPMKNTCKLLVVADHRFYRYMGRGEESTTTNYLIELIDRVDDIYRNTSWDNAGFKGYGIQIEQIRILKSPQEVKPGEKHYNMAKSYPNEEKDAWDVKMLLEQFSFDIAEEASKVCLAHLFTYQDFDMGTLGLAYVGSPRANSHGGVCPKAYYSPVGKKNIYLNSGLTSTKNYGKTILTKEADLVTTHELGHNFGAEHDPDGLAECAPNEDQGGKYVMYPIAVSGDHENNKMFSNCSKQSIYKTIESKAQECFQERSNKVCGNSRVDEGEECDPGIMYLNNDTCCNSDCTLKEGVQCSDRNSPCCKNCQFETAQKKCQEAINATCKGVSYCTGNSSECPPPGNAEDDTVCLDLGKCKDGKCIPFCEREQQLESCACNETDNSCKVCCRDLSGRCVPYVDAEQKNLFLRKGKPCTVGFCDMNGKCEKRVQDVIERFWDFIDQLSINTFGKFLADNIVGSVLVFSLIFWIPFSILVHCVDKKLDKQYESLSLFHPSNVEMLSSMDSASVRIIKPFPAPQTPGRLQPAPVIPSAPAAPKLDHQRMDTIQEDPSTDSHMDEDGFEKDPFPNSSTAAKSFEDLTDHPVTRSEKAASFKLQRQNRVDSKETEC
Sequence of MMP-9 (P14780 94-707): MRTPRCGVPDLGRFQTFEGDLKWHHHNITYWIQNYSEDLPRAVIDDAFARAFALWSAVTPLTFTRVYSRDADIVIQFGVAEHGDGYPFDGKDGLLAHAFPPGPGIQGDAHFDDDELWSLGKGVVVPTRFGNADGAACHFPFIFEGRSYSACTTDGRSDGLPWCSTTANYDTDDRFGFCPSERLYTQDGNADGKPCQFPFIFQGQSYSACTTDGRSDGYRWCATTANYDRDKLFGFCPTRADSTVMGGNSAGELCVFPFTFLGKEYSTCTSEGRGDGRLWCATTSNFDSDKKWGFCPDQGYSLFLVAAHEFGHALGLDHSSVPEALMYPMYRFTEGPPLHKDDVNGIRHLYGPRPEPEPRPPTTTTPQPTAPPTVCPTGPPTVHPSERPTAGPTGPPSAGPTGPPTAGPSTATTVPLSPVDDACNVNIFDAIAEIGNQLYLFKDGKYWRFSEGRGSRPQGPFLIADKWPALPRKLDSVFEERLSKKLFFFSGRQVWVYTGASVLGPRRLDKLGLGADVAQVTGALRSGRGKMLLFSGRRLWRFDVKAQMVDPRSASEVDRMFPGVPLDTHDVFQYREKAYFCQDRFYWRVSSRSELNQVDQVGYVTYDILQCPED

CC#CCOc1ccc(S(=O)(=O)C(C)(Cc2ccc(-c3ccccc3)cc2)C(=O)NO)cc1 (stereo not shown) [Example 2, 3-Biphenyl-4-yl-2-(4-But-2-ynyloxy-phenylsulfonyl)-N-hydroxy-2-methyl-propionamide]
THP (% inhibition) (THP-1 cells): 5% | IC50 (MMP-13; Table 1, read-out: MMP13 IC50): 597 nM | IC50 (MMP-9): 207 nM | IC50 (MMP-1): 2200 nM | IC50 ([1]; Table 1): 207 nM

CC#CCOc1ccc(S(=O)(=O)C(C)(Cc2cccnc2)C(=O)NO)cc1 (stereo not shown) [Example 3, 2-(4-But-2-ynyloxy-phenylsulfonyl)-N-hydroxy-2-methyl-3-pyridin-3-ylpropionamide]
THP (% inhibition) (THP-1 cells): 14% | IC50 (MMP-13; Table 1, read-out: MMP13 IC50): 69 nM | IC50 (MMP-9): 142 nM | IC50 (MMP-1): 1400 nM | IC50 ([1]; Table 1): 15.7 nM

CC#CCOc1ccc(SC(C(=O)NO)c2ccc(Cl)cc2)cc1 (stereo not shown) [Example 80, 2-{[4-(2-butynyloxy)phenyl]sulfanyl}-2-(4-chlorophenyl)-N-hydroxyacetamide]
inhibition at 3 µM (THP-1 cells): 4% | inhibition at 10 µM (MMP-13; read-out: MMP13): 48.8% | inhibition at 10 µM (MMP-9): 10.9% | inhibition at 10 µM (MMP-1): 0% | IC50 [1, 2]: 102 nM

CC#CCOc1ccc(S(=O)(=O)C(C(=O)NO)c2ccc(F)cc2)cc1 (stereo not shown) [Example 97, 2-{[4-(2-butynyloxy)phenyl]sulfonyl}-2-(4-fluorophenyl)-N-hydroxyacetamide]
inhibition at 3 µM (THP-1 cells): 10% | inhibition at 10 µM (MMP-13; read-out: MMP13): 47.4% | inhibition at 10 µM (MMP-9): 0.5% | inhibition at 10 µM (MMP-1): 0.5% | IC50 [1, 2]: 109 nM

CC#CCOc1ccc(S(=O)(=O)C(C(=O)NO)c2ccc(Cl)cc2)cc1 (stereo not shown) [Example 82, 2-{[4-(2-butynyloxy)phenyl]sulfonyl}-2-(4-chlorophenyl)-N-hydroxyacetamide]
inhibition at 3 µM (THP-1 cells): 14% | IC50 (MMP-13; IC50, read-out: MMP13): 5060 nM | inhibition at 10 µM (MMP-9): 38% | inhibition at 10 µM (MMP-1): 27.1% | IC50 [1, 2]: 108 nM

CC#CCOc1ccc([S@@+]([O-])[C@@H](CCCCCC)C(=O)NO)cc1 [Example 8, (S)-2-[(S)-[4-(2-Butynyloxy)phenylsulfinyl)]-N-hydroxyoctanamide]
THP (% inhibition) (THP-1 cells): 35% | IC50 (MMP-13; Table 1, read-out: MMP13 IC50): 150 nM | IC50 (MMP-9): 1000 nM | IC50 (MMP-1): 3200 nM | IC50 ([1]; Table 1): 12.4 nM

CC#CCOc1ccc([S+]([O-])[C@@H](C(=O)NO)c2ccccc2)cc1 (stereo partly shown) [Example 112, R-2-{[4-(2-butynyloxy)phenyl]sulfinyl}-2-phenyl-N-hydroxyacetamide]
inhibition at 3 µM (THP-1 cells): 15% | inhibition at 10 µM (MMP-13; read-out: MMP13): 23.6% | inhibition at 10 µM (MMP-9): 8.2% | inhibition at 10 µM (MMP-1): 9.9% | IC50 [1, 2]: 28 nM

CC#CCOc1ccc(S(=O)(=O)C(C)(Cc2ccc(OCCN3CCCCC3)cc2)C(=O)NO)cc1 (stereo not shown) [Example 1, 2-(4-But-2-ynyloxy-benzenesulfonyl)-N-hydroxy-2-methyl-3-[4-(2-piperidin-1-yl-ethoxy)-phenyl]-propionamide]
THP (% inhibition) (THP-1 cells): 25% | IC50 (MMP-13; Table 1, read-out: MMP13 IC50): 200 nM | IC50 (MMP-9): 180 nM | IC50 (MMP-1): 2000 nM | IC50 ([1]; Table 1): 191 nM

CC#CCOc1ccc([S+]([O-])C(C(=O)NO)C2CCCCC2)cc1 (stereo not shown) [Example 74, 2-{[4-(2-butynyloxy)phenyl]sulfinyl}-2-cyclohexyl-N-hydroxyacetamide]
inhibition at 3 µM (THP-1 cells): 31% | IC50 (MMP-13; IC50, read-out: MMP13): 93.5 nM | IC50 (MMP-9): 336 nM | IC50 (MMP-1): 1500 nM | IC50 [1, 2]: 52 nM

CC#CCOc1ccc(SC(C(=O)NO)c2ccccc2)cc1 (stereo not shown) [Example 111, 2-{[4-(2-Butynyloxy)phenyl]sulfanyl}-2-phenyl-N-hydroxyacetamide]
inhibition at 3 µM (THP-1 cells): -10% | inhibition at 10 µM (MMP-13; read-out: MMP13): 0.8% | inhibition at 10 µM (MMP-9): 13.5% | inhibition at 10 µM (MMP-1): 6.6% | IC50 [1, 2]: 50 nM

CC#CCOc1ccc(S(=O)(=O)C(CCCCCC#N)C(=O)NO)cc1 (stereo not shown) [Example 72, 2-{[4-(2-butynyloxy)phenyl]sulfonyl}-7-cyano-N-hydroxy heptanamide]
inhibition at 3 µM (THP-1 cells): 54% | IC50 (MMP-13; IC50, read-out: MMP13): 341 nM | IC50 (MMP-9): 1360 nM | inhibition at 10 µM (MMP-1): 46.2% | IC50 [1, 2]: 14.2 nM

CC#CCOc1ccc(SC(C(=O)NO)C(C)C)cc1 (stereo not shown) [Example 107, 2-{[4-(2-Butynyloxy)phenyl]sulfanyl}-2-isopropyl-N-hydroxyacetamide]
inhibition at 3 µM (THP-1 cells): -13% | inhibition at 10 µM (MMP-13; read-out: MMP13): 59.4% | inhibition at 10 µM (MMP-9): 56.8% | inhibition at 10 µM (MMP-1): 2.8% | IC50 [1, 2]: 157 nM

CC#CCOc1ccc([S@+]([O-])[C@@H](CCCCCC)C(=O)NO)cc1 [Example 7, (S)-2-[(R)-[4-(2-Butynyloxy)phenylsulfinyl)]-N-hydroxyoctanamide]
THP (% inhibition) (THP-1 cells): 67% | IC50 (MMP-13; Table 1, read-out: MMP13 IC50): 900 nM | IC50 (MMP-9): 1500 nM | IC50 (MMP-1): 3000 nM | IC50 ([1]; Table 1): 4.3 nM

CC#CCOc1ccc(SC(CCCCCC)C(=O)NO)cc1 (stereo not shown) [Example 6, 2-(4-But-2-ynyloxy-phenylsulfanyl)-octanoic acid hydroxamide]
THP (% inhibition) (THP-1 cells): 5% | IC50 (MMP-13; Table 1, read-out: MMP13 IC50): 2000 nM | IC50 (MMP-9): 3000 nM | IC50 (MMP-1): 15000 nM | IC50 ([1]; Table 1): 105 nM

CC#CCOc1ccc(S(=O)(=O)C(C(=O)NO)C(C)C)cc1 (stereo not shown) [Example 110, 2-{[4-{2-butynyloxy)phenyl]sulfonyl}-2-isopropyl-N-hydroxyacetamide]
inhibition at 3 µM (THP-1 cells): 25% | IC50 (MMP-13; IC50, read-out: MMP13): 1260 nM | IC50 (MMP-9): 5140 nM | inhibition at 10 µM (MMP-1): 39.6% | IC50 [1, 2]: 17 nM

CC#CCOc1ccc([S+]([O-])[C@H](C(=O)NO)c2ccc(OC)cc2)cc1 (single isomer, unassigned) [Example 78]
inhibition at 3 µM (THP-1 cells): 13% | inhibition at 10 µM (MMP-13; read-out: MMP13): 54.5% | inhibition at 10 µM (MMP-9): 32.7% | inhibition at 10 µM (MMP-1): 5.9%
